Data from US20140315956A1, “SMALL MOLECULE INHIBITORS OF IL-6 AND USES THEREOF” (NATIONWIDE CHILDREN'S HOSPITAL, priority 2011, published 2014).
“Also recorded” adds a separate entry of the source. Read-outs that look alike come from different tables or passages of the source.

What was measured:
[1] = tested on: SUM-159 breast cancer cells tumor xenograft; test: Tumor xenograft model with SUM-159 breast cancer cells; assay type: in vivo, human; details: 100 mg/kg, SUM-159 xenograft, vehicle DMSO
Excerpt: The effect of a representative compound, MDL-16, on tumor progression is compared to a group treated with vehicle (DMSO).

[2] = tested on: LIF mediated STAT3 phosphorylation; test: LIF induced phosphorylation of STAT3 (FIG. 34); assay type: cell-based
[3] = tested on: Stat3 phosphorylation (p-Tyr705) induced by IL-6 in LNCaP prostate cancer cells; test: IL-6 induced Stat3 phosphorylation in LNCaP cells, Western blot; assay type: cell-based; details: for inhibition of Stat3 phosphorylation induced by IL6: Western blot; for relative potency of inhibition of Stat3 phosphorylation: comparison in words
Description: LNCaP prostate cancer cells were acquired from American Type Culture Collection. Cells were maintained in RPMI 1640 medium, 1× with 4.5 g/L L-glutamine, supplemented with 10% FBS, 100 U/ml penicillin and […] streptomycin (Invitrogen), in a humidified atmosphere of 5% CO2 at 37° C.
LNCaP prostate cancer cells were seeded in T75 flasks, grown to 50% confluence and serum-starved the following night. The cells were left untreated or were treated with MDL-A (100-400 μM), 1, 2 (5-40 μM) or DMSO in the absence of FBS. After 4 hours, the cells were stimulated with 12.5 ng/ml IL-6 (Cell Signaling Technology). The cells were then harvested at 30 minutes and washed with PBS and lysed in cold M-PER lysis buffer (Pierce) containing protease inhibitors (Sigma) and phosphatase inhibitors (Roche). Lysates were centrifuged at 14,000 rpm for 15 minutes at 4° C. and supernatants were collected and stored at −20° C. until further use.
Cell lysates were assayed for their protein concentrations using the Bradford protein assay reagent (Pierce), using BSA (Fisher Scientific) as the standard. Lysate samples were adjusted for the same protein concentration, approximately 5 μg of sample protein was loaded into each of the appropriate lanes. Protein samples were separated by SDS-PAGE and electrotransferred to PVDF membranes. The membranes were washed and blocked with 5% BSA in TBST (60 mM Tris-base, 120 mM NaCl, 0.1% Tween-20) for at least one hour and incubated with anti-phospho-STAT3 (p-Tyr705) antibody, anti-STAT3 antibody or anti-GAPDH antibody (all from Cell Signaling Technology) in 5% BSA in TBST overnight at 4° C. Blots were then washed three times in TBST and incubated with a horseradish peroxidase-conjugated goat anti-rabbit IgG secondary antibody (Cell Signaling Technology) in 5% BSA in TBST for 1 hour at room temperature. The bound antibody was detected using Enhanced Chemiluminescence detection reagents (Pierce) according to the manufacturer's instructions and chemiluminescence visualized using ECL Hyperfilm (Amersham).

[4] = molecular target: T1, gp130 extracellular domain (recombinant gp130-Fc-HA) (Homo sapiens, UniProt P40189); test: Surface plasmon resonance direct binding to gp130-Fc-HA; details: for binding in SPR direct binding assay, comparison in words: relative to MDL-A or to other analogues
T1 construct: purified gp130 (amino residue 18-615); made in house; host or cells: HEK293T (plasmid from Dr. John J. Krolewski)
T1 sequence (P40189 18-615): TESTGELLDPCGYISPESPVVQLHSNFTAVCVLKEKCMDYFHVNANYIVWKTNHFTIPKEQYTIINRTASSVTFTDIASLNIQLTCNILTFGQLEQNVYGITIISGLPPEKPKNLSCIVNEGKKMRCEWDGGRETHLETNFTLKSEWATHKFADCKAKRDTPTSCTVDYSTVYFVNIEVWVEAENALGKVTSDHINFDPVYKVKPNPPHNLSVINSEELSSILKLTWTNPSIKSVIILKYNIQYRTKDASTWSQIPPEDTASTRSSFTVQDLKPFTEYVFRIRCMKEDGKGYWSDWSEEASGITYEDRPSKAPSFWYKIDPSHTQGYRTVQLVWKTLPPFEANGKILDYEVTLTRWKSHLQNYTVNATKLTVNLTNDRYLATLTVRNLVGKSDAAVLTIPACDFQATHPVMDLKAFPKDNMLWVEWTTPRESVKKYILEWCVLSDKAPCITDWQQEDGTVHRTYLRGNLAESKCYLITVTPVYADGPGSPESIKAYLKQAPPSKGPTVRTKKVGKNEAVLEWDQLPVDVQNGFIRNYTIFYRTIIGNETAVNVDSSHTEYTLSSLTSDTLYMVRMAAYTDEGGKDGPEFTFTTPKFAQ
Description: HEK293T cells were grown in media containing DMEM+10% fetal bovine serum (FBS),100 U/ml penicillin and […] streptomycin (Invitrogen) in a humidified 37° C. incubator with 5% CO2. Plasmid DNA expressing gp130-Fc-HA was transfected in the form of calcium phosphate precipitate into HEK293T cells (ten T75 flasks containing 5.5×10^6 cells). The supernatant was harvested sixty hours post transfection and centrifuged to remove residual cells and adjusted to pH 8.0. The supernatant was passed through a 0.45 μm filter. The gp130-Fc-HA tagged protein was immunoprecipitated using anti-HA affinity matrix (Roche Applied Bioscience).A one milliliter column containing anti-HA affinity matrix was equilibrated with 20 mM Tris-HCl, 0.1M NaCl, 0.1 mM EDTA (pH 8.0). The supernatant was applied to the equilibrated column and the column was washed successively with 20 mM Tris-HCl, 1M NaCl (pH 8.0). Bound protein was eluted with HA peptide dissolved in equilibration buffer. The column was regenerated with 0.1 M glycine (pH 2.0). Fractions containing recombinant protein were pooled, dialyzed against HBS buffer [10 mM HEPES (pH 7.4), 0.15 M NaCl, 3 mM EDTA, 0.005% P20] and concentrated by Centricon 30 (Amicon) centrifugation. Protein concentration was determined using Bradford protein assay reagent (Pierce), with bovine serum albumin (BSA, Fisher Scientific) as a standard. The purified recombinant gp130 protein was analyzed using SDS-PAGE and immunoblotting.
Surface plasmon resonance (SPR) analysis was performed using BIAcore T100. Recombinant gp130-Fc-HA was cross-linked to the flow cell on a carboxymethylated dextran matrix of a CM5 sensor chip (BIAcore) using standard amino group coupling methods according to the manufacturer's instructions. Sodium acetate (10 mM, pH 3.5) gave the best immobilization of the protein on the chip surface and unreactive groups on the chip were blocked by ethanolamine according to the manufacturer's instructions. Approximately 5000 resonance units (RU) of gp130-Fc-HA were cross-linked to the flow cell. HBS+1% DMSO were used in all buffers (running and sample) to avoid background response due to differences in buffer refractive index. For the equilibrium analysis, various concentrations of MDL-A, 1, and 2 were injected for a period of 2 min at a flow rate of 30 μl/min, in series, into flow cells containing covalently bound gp130-fc-HA and reference flow cell. Bound ligand (MDL-A, 1, and 2) in each assay was removed by passing 10 mM glycine (pH 2.2) over the chip surface. Biacore T100 Evaluation 2.0 was used for all interaction analyses. The steady-state equilibrium response (RUeq) was determined from the reference-subtracted sensogram. The kinetics parameter was calculated according to a 1:1 Langmuir binding model (A+B ? AB) by direct fitting of ligand binding sensor grams at multiple concentrations. The dissociation equilibrium constant is defined as dissociation constant (KD)=dissociation rate constant (kd)/association rate constant (ka). KD was determined by scattered analysis of equilibrium-state data obtained at different concentrations of analogues.
To examine the direct binding and calculation of equilibrium dissociation constant (KD) of MDL-A analogues with gp130 extracellular domain, surface plasmon resonance analysis was done. Protein was covalently cross linked to the dextran matrix of the biosensor chip CM5. Successively, various concentrations of MDL-A and MDL-A analogues were injected into the flow cells containing bound protein and no protein (reference). Interactions were monitored in real time and KD values were calculated by reference-substrated sensogram.
To examine the direct binding and calculate the equilibrium dissociation constant (KD) of MDL-A analogues with gp130 extracellular domain, surface plasmon resonance analysis was performed. Surface plasmon resonance (SPR) analysis was performed using a BIAcore T100. […]

[5] = tested on: IL6 mediated STAT3 phosphorylation; test: IL6 induced phosphorylation of STAT3 (FIG. 34); assay type: cell-based
[6] = tested on: nuclear translocation of STAT3 in MCF-7 cells; test: Immunofluorescence of IL6-activated STAT3 nuclear translocation in MCF-7 cells; assay type: cell-based
[7] = tested on: Stat3 phosphorylation (p-Tyr705) induced by IL-6 in LNCaP prostate cancer cells; test: IL-6 induced Stat3 phosphorylation in LNCaP cells, Western blot; assay type: cell-based; details: IL-6 12.5 ng/ml 30 min
[8] = gp130-Fc-HA on CM5 chip, BIAcore T100, read-out: SPR data (Kd μM)
[9] = gp130 extracellular domain, Biacore evaluation software 2.0, read-out: KD

Compound	Kd [4, 8]	Kd ([4]; values in running text and figure legend, read-out: dissociation constant (KD))	Kd [4, 9]	effect on tumor progression compared to vehicle [1]	LIF mediated STAT3 phosphorylation [2]	inhibition of Stat3 phosphorylation induced by IL-6 at 40 µM ([3]; 40 μM compound 4 hours, IL-6 12.5 ng/ml 30 min)	inhibition of Stat3 phosphorylation induced by IL6 ([3]; IL-6 12.5 ng/ml 30 min)	relative potency of inhibition of Stat3 phosphorylation [3]	binding in SPR direct binding assay, comparison in words [4]	IL6 mediated STAT3 phosphorylation [5]	nuclear translocation of STAT3 activated by IL6 [6]	inhibition of Stat3 phosphorylation induced by IL-6 at 40 µM [7]
CCCCc1ccc(O)c(Cn2cc(C[C@H](O)COC(=O)c3ccccc3)c3ccccc32)c1O [MDL-16, (S)-3-(1-(3-Butyl-2,6-Dihydroxybenzyl)-1H-Indol-3Yl)-2-Hydroxypropyl Benzoate]	29 µM	29.7 µM		significant effect on tumor progress compared to vehicle	not LIF mediated STAT3 phosphorylation	completely inhibits	dose dependent inhibition	slightly more potent than MDL-5	stronger binding than analogues without extra attachments; also recorded: strongest binding affinity; also recorded: better binding than MDL-A; also recorded: better activity than MDL-A	inhibits IL6 mediated STAT3 phosphorylation	inhibits the nuclear translocation of STAT3	
CCCCc1ccc(O)c(Cn2cc(CCO)c3cc(C(=O)OC)ccc32)c1O [MDL-7]	40.8 µM		40.8 µM					slightly more potent than MDL-5	better binding than MDL-A; also recorded: better activity than MDL-A			completely inhibit
CCCCc1ccc(OC)c(CN2c3ccccc3[C@]3(O)C[C@H](COC(=O)c4ccccc4)O[C@H]23)c1OC [MDL-17]	42.5 µM								stronger binding than analogues without extra attachments; also recorded: better binding than MDL-A; also recorded: better activity than MDL-A			
CCCCc1ccc(OC)c(Cn2cc(CCO)c3ccccc32)c1OC [MDL-8]	41.4 µM		41.4 µM						better binding than MDL-A; also recorded: better activity than MDL-A			
CCCCc1ccc(O)c(CN2c3ccccc3[C@]3(O)C[C@H](COC(=O)c4ccccc4)O[C@H]23)c1O (stereo in doubt) [MDL-5, ((2S,3AR)-8-(3-butyl-2,6-Dihydroxybenzyl)-3A-Hydroxy-3,3A,8,8A-Tetrahydro-2H-Furo[2,3-B]Indol-2-Yl)Methyl Benzoate]	37 µM		37 µM				dose dependent inhibition		stronger binding than analogues without extra attachments; also recorded: better binding than MDL-A; also recorded: better activity than MDL-A		inhibits the nuclear translocation of STAT3	
CCCCc1ccc(O)c(Cn2cc(CCO)c3ccccc32)c1O [MDL-6]	49.5 µM		49.5 µM					slightly more potent than MDL-5	better binding than MDL-A; also recorded: better activity than MDL-A			completely inhibit
CCCCn1nccc1C(=O)CN1c2ccccc2[C@]2(O)CCO[C@H]12 [MDL-3]									better binding than MDL-A			
